# Results from paper PMC5218480 (PLoS ONE, 2017).
# System: MV-4-11 cells
# Test: Gene expression microarray analysis (Affymetrix PrimeView) and GSEA
# Type: cell-based, human
# Set-up: RFU PODN (11730768_x_at) / Fold change /veh PODN (11730768_x_at) / RFU LINC00158 (11744669_a_at) / Fold change /veh LINC00158 (11744669_a_at) / RFU DUSP10 (11751237_a_at) / Fold change /veh DUSP10 (11751237_a_at) / RFU ID3 (11757404_x_at) / Fold change /veh ID3 (11757404_x_at) / RFU PLEKHG5 (11737974_s_at) / Fold change /veh PLEKHG5 (11737974_s_at) / RFU LRRC4B (11730491_at) / Fold change /veh LRRC4B (11730491_at) / RFU GIMAP4 (11747438_a_at) / Fold change /veh GIMAP4 (11747438_a_at) / RFU KRT8 (11758183_x_at) / Fold change /veh KRT8 (11758183_x_at) / RFU CNN1 (11734310_a_at) / Fold change /veh CNN1 (11734310_a_at) / RFU VPS37D (11726825_at) / Fold change /veh VPS37D (11726825_at) / RFU C10orf10 (11716522_x_at) / Fold change /veh C10orf10 (11716522_x_at) / RFU KIR2DL2 /// KIR2DL4 /// KIR2DL5A /// KIR2DL5B /// KIR2DS1 /// KIR2DS2 /// KIR2DS3 /// KIR2DS4 /// KIR3DL3 /// KIR3DL3 /// KIR3DS1 (11738374_at) / Fold change /veh KIR2DL2 /// KIR2DL4 /// KIR2DL5A /// KIR2DL5B /// KIR2DS1 /// KIR2DS2 /// KIR2DS3 /// KIR2DS4 /// KIR3DL3 /// KIR3DL3 /// KIR3DS1 (11738374_at) / RFU C1QL1 (11718748_at) / Fold change /veh C1QL1 (11718748_at) / RFU TMPRSS4 (11747572_a_at) / Fold change /veh TMPRSS4 (11747572_a_at) / RFU HAMP (11756126_x_at) / Fold change /veh HAMP (11756126_x_at) / RFU RNFT2 (11725882_a_at) / Fold change /veh RNFT2 (11725882_a_at) / RFU NR4A2 (11747474_a_at) / Fold change /veh NR4A2 (11747474_a_at) / RFU ABCC12 (11746883_a_at) / Fold change /veh ABCC12 (11746883_a_at) / RFU TMEM136 (11760407_x_at) / Fold change /veh TMEM136 (11760407_x_at) / RFU CLDN22 /// WWC2 (11732394_at) / Fold change /veh CLDN22 /// WWC2 (11732394_at) / RFU HLA-DPB1 (11760878_x_at) / Fold change /veh HLA-DPB1 (11760878_x_at) / RFU SPINT1 (11716480_a_at) / Fold change /veh SPINT1 (11716480_a_at) / RFU GAP43 (11754022_s_at) / Fold change /veh GAP43 (11754022_s_at) / RFU A4GNT (11735810_at) / Fold change /veh A4GNT (11735810_at) / RFU PRB3 (11715151_x_at) / Fold change /veh PRB3 (11715151_x_at) / RFU TUBB4B (11761932_at) / Fold change /veh TUBB4B (11761932_at) / RFU CAPN14 (11732068_a_at) / Fold change /veh CAPN14 (11732068_a_at) / RFU TMCC2 (11721928_a_at) / Fold change /veh TMCC2 (11721928_a_at) / RFU IRGQ (11745062_a_at) / Fold change /veh IRGQ (11745062_a_at) / RFU FAM174B (11720279_a_at) / Fold change /veh FAM174B (11720279_a_at) / RFU TMPRSS4 (11748680_a_at) / Fold change /veh TMPRSS4 (11748680_a_at) / RFU FAM212B (11763350_a_at) / Fold change /veh FAM212B (11763350_a_at) / RFU PLEKHG5 (11743358_a_at) / Fold change /veh PLEKHG5 (11743358_a_at) / RFU ZSCAN30 (11745921_a_at) / Fold change /veh ZSCAN30 (11745921_a_at) / RFU CMKLR1 (11741424_a_at) / Fold change /veh CMKLR1 (11741424_a_at) / RFU LOC101060620 /// MAPK8IP1 (11723275_at) / Fold change /veh LOC101060620 /// MAPK8IP1 (11723275_at) / RFU SPTSSB (11747773_x_at) / Fold change /veh SPTSSB (11747773_x_at) / RFU PRSS12 (11739890_at) / Fold change /veh PRSS12 (11739890_at) / RFU BIN1 (11741810_x_at) / Fold change /veh BIN1 (11741810_x_at) / RFU WNT11 (11732464_a_at) / Fold change /veh WNT11 (11732464_a_at) / RFU C10orf10 (11716521_a_at) / Fold change /veh C10orf10 (11716521_a_at) / RFU C5orf56 (11738089_at) / Fold change /veh C5orf56 (11738089_at) / RFU CYB561 (11721691_x_at) / Fold change /veh CYB561 (11721691_x_at) / RFU ANKRD19P (11752326_a_at) / Fold change /veh ANKRD19P (11752326_a_at) / RFU OR2T12 /// OR2T33 /// OR2T8 (11738714_s_at) / Fold change /veh OR2T12 /// OR2T33 /// OR2T8 (11738714_s_at) / RFU VCAN (11748164_a_at) / Fold change /veh VCAN (11748164_a_at) / RFU JSRP1 (11732532_at) / Fold change /veh JSRP1 (11732532_at) / RFU KRTAP10-11 (11738290_x_at) / Fold change /veh KRTAP10-11 (11738290_x_at) / RFU MYO3A (11730013_a_at) / Fold change /veh MYO3A (11730013_a_at) / RFU EBF3 (11725865_a_at) / Fold change /veh EBF3 (11725865_a_at) / RFU CAMK2N1 (11719241_x_at) / Fold change /veh CAMK2N1 (11719241_x_at) / RFU C5orf56 (11738088_a_at) / Fold change /veh C5orf56 (11738088_a_at) / RFU OLFML3 (11715873_a_at) / Fold change /veh OLFML3 (11715873_a_at) / RFU LOC100653217 /// NTM (11731650_a_at) / Fold change /veh LOC100653217 /// NTM (11731650_a_at) / RFU MAPK11 (11762145_a_at) / Fold change /veh MAPK11 (11762145_a_at) / RFU FIZ1 (11724087_x_at) / Fold change /veh FIZ1 (11724087_x_at) / RFU OASL (11726364_x_at) / Fold change /veh OASL (11726364_x_at) / RFU SOX15 (11748057_x_at) / Fold change /veh SOX15 (11748057_x_at) / RFU CD79A (11719716_a_at) / Fold change /veh CD79A (11719716_a_at) / RFU HIST1H1D (11736915_at) / Fold change /veh HIST1H1D (11736915_at) / RFU CASKIN2 (11723855_a_at) / Fold change /veh CASKIN2 (11723855_a_at) / RFU LOC730098 (11760151_x_at) / Fold change /veh LOC730098 (11760151_x_at) / RFU OR4N2 (11742367_at) / Fold change /veh OR4N2 (11742367_at) / RFU PRRT2 (11749266_a_at) / Fold change /veh PRRT2 (11749266_a_at) / RFU SNX32 (11753110_a_at) / Fold change /veh SNX32 (11753110_a_at) / RFU CDHR5 (11726645_a_at) / Fold change /veh CDHR5 (11726645_a_at) / RFU RCAN1 (11760418_a_at) / Fold change /veh RCAN1 (11760418_a_at) / RFU FAM167A (11723789_a_at) / Fold change /veh FAM167A (11723789_a_at) / RFU FAM26E (11764081_at) / Fold change /veh FAM26E (11764081_at) / RFU ISYNA1 (11749810_s_at) / Fold change /veh ISYNA1 (11749810_s_at) / RFU ACY1 (11761880_at) / Fold change /veh ACY1 (11761880_at) / RFU 11764098_at / Fold change /veh 11764098_at / RFU SAMD14 (11745864_x_at) / Fold change /veh SAMD14 (11745864_x_at) / RFU NPB (11741838_a_at) / Fold change /veh NPB (11741838_a_at) / RFU TMPRSS6 (11731388_a_at) / Fold change /veh TMPRSS6 (11731388_a_at) / RFU KRTAP10-2 (11738614_at) / Fold change /veh KRTAP10-2 (11738614_at) / RFU ARHGAP8 /// PRR5-ARHGAP8 (11727945_x_at) / Fold change /veh ARHGAP8 /// PRR5-ARHGAP8 (11727945_x_at) / RFU KRTAP5-7 /// NADSYN1 (11734609_at) / Fold change /veh KRTAP5-7 /// NADSYN1 (11734609_at) / RFU RASL12 (11751679_a_at) / Fold change /veh RASL12 (11751679_a_at) / RFU CDKN2B (11736163_a_at) / Fold change /veh CDKN2B (11736163_a_at) / RFU PRF1 (11729649_at) / Fold change /veh PRF1 (11729649_at) / RFU, ZNF638 /// ZNF638-IT1 / Fold change vs veh, ZNF638 /// ZNF638-IT1 / RFU, PANK3 / Fold change vs veh, PANK3 / RFU, SH3YL1 / Fold change vs veh, SH3YL1 / RFU, ZEB2 / Fold change vs veh, ZEB2 / RFU, NRIP1 / Fold change vs veh, NRIP1 / RFU, PTTG1IP / Fold change vs veh, PTTG1IP / RFU, CAPN2 / Fold change vs veh, CAPN2 / RFU, MED14 / Fold change vs veh, MED14 / RFU, SNORA58 / Fold change vs veh, SNORA58 / RFU, C1orf63 / Fold change vs veh, C1orf63 / RFU, LRRFIP1 / Fold change vs veh, LRRFIP1 / RFU, NDUFAF7 / Fold change vs veh, NDUFAF7 / RFU, SLC12A2 / Fold change vs veh, SLC12A2 / RFU, IBTK / Fold change vs veh, IBTK / RFU, ESF1 / Fold change vs veh, ESF1 / Fold change vs veh, TMEM50B / RFU, TAOK1 / Fold change vs veh, TAOK1 / RFU, ACBD3 / Fold change vs veh, ACBD3 / RFU, TMA16 / Fold change vs veh, TMA16 / RFU, RWDD3 / Fold change vs veh, RWDD3 / RFU, BCAT1 / Fold change vs veh, BCAT1 / RFU, EDEM3 / Fold change vs veh, EDEM3 / RFU, TMEM33 / Fold change vs veh, TMEM33 / RFU, WDR75 / Fold change vs veh, WDR75 / RFU, AHCTF1 / Fold change vs veh, AHCTF1 / RFU, TFRC / Fold change vs veh, TFRC / RFU, ZDHHC17 / Fold change vs veh, ZDHHC17 / RFU, NOM1 / Fold change vs veh, NOM1 / RFU, ARL8B / Fold change vs veh, ARL8B / RFU, ZBTB11 / Fold change vs veh, ZBTB11 / RFU, TAMM41 / Fold change vs veh, TAMM41 / RFU, KIAA1704 /// LOC100996395 / Fold change vs veh, KIAA1704 /// LOC100996395 / RFU, ING1 / Fold change vs veh, ING1 / RFU, TRMT61B / Fold change vs veh, TRMT61B / RFU, FUBP3 / Fold change vs veh, FUBP3 / RFU, TP53 / Fold change vs veh, TP53 / RFU, TNKS2 / Fold change vs veh, TNKS2 / RFU, ZFP14 / Fold change vs veh, ZFP14 / RFU, ACTR2 / Fold change vs veh, ACTR2 / RFU, PPP3R1 / Fold change vs veh, PPP3R1 / RFU, PIK3R1 / Fold change vs veh, PIK3R1 / RFU, HNRNPA1 / Fold change vs veh, HNRNPA1 / RFU, RNF170 / Fold change vs veh, RNF170 / RFU, ZNF28 / Fold change vs veh, ZNF28 / RFU, RNGTT / Fold change vs veh, RNGTT / RFU, OGT / Fold change vs veh, OGT / RFU, BRD1 / Fold change vs veh, BRD1 / RFU, MARS / Fold change vs veh, MARS / RFU, ZNF655 / Fold change vs veh, ZNF655 / RFU, FAHD1 / Fold change vs veh, FAHD1 / RFU, BDP1 / Fold change vs veh, BDP1 / RFU, LRRCC1 / Fold change vs veh, LRRCC1 / RFU, ARID1A / Fold change vs veh, ARID1A / RFU, ZNF146 / Fold change vs veh, ZNF146 / RFU, ZNF330 / Fold change vs veh, ZNF330 / RFU, GPN3 / Fold change vs veh, GPN3 / RFU, C9orf123 / Fold change vs veh, C9orf123 / RFU, N4BP2L2 / Fold change vs veh, N4BP2L2 / RFU, ARFIP1 / Fold change vs veh, ARFIP1 / RFU, FAM179B / Fold change vs veh, FAM179B / RFU, BCL10 / Fold change vs veh, BCL10 / RFU, UHRF1BP1L / Fold change vs veh, UHRF1BP1L / RFU, BET1 / Fold change vs veh, BET1 / RFU, CNOT2 / Fold change vs veh, CNOT2 / RFU, ZNF268 / Fold change vs veh, ZNF268 / Fold change vs veh, ZNF507 / RFU, DGCR2 / Fold change vs veh, DGCR2 / RFU, WDSUB1 / Fold change vs veh, WDSUB1 / Fold change vs veh, HSP90B1 /// MIR3652 / RFU, ADSS / Fold change vs veh, ADSS / RFU, GK / Fold change vs veh, GK / RFU, ZNF148 / Fold change vs veh, ZNF148 / RFU, TAF9 / Fold change vs veh, TAF9 / RFU, SLC1A5 / Fold change vs veh, SLC1A5 / RFU, SLMO2 / Fold change vs veh, SLMO2 / RFU, ABCC4 / Fold change vs veh, ABCC4 / RFU, LOC101060439 /// RAP1B / Fold change vs veh, LOC101060439 /// RAP1B / RFU, RFX7 / Fold change vs veh, RFX7 / RFU, GTPBP10 / Fold change vs veh, GTPBP10 / RFU, CNEP1R1 / Fold change vs veh, CNEP1R1 / RFU, BIVM-ERCC5 /// ERCC5 / Fold change vs veh, BIVM-ERCC5 /// ERCC5 / RFU, ILF3 / Fold change vs veh, ILF3 / RFU 11762660_at / Fold change /veh 11762660_at / RFU VCAN (11757783_s_at) / Fold change /veh VCAN (11757783_s_at) / RFU DDX43 (11728927_at) / Fold change /veh DDX43 (11728927_at) / RFU KRT8 (11758188_x_at) / Fold change /veh KRT8 (11758188_x_at) / RFU NKD1 (11759106_at) / Fold change /veh NKD1 (11759106_at) / RFU SRD5A1 (11742802_a_at) / Fold change /veh SRD5A1 (11742802_a_at) / RFU TPSAB1 /// TPSB2 (11721975_s_at) / Fold change /veh TPSAB1 /// TPSB2 (11721975_s_at) / RFU GSTM3 (11746129_a_at) / Fold change /veh GSTM3 (11746129_a_at) / RFU IL23R (11737362_x_at) / Fold change /veh IL23R (11737362_x_at) / RFU TMEM51 (11727254_a_at) / Fold change /veh TMEM51 (11727254_a_at) / RFU PIWIL2 (11732686_x_at) / Fold change /veh PIWIL2 (11732686_x_at) / RFU ORM1 (11744905_x_at) / Fold change /veh ORM1 (11744905_x_at) / RFU CCDC152 (11743942_at) / Fold change /veh CCDC152 (11743942_at) / RFU ECM1 (11717891_a_at) / Fold change /veh ECM1 (11717891_a_at) / RFU IL23R (11748794_a_at) / Fold change /veh IL23R (11748794_a_at) / RFU TNFAIP8L3 (11732012_x_at) / Fold change /veh TNFAIP8L3 (11732012_x_at) / RFU MBOAT4 (11741988_at) / Fold change /veh MBOAT4 (11741988_at) / RFU 11764193_at / Fold change /veh 11764193_at / RFU TMEM53 (11763286_at) / Fold change /veh TMEM53 (11763286_at) / RFU MAGEB2 (11727129_at) / Fold change /veh MAGEB2 (11727129_at) / RFU TMEM200A (11744735_a_at) / Fold change /veh TMEM200A (11744735_a_at) / RFU CCDC152 (11751479_a_at) / Fold change /veh CCDC152 (11751479_a_at) / RFU FAM211A (11726209_a_at) / Fold change /veh FAM211A (11726209_a_at) / RFU RGS16 (11746705_a_at) / Fold change /veh RGS16 (11746705_a_at) / RFU VCAN (11755009_s_at) / Fold change /veh VCAN (11755009_s_at) / RFU RHOB (11743442_s_at) / Fold change /veh RHOB (11743442_s_at) / RFU RGS16 (11720943_a_at) / Fold change /veh RGS16 (11720943_a_at) / RFU RGS16 (11720944_at) / Fold change /veh RGS16 (11720944_at) / RFU, VPS4B / Fold change vs veh, VPS4B / RFU, CREB1 / Fold change vs veh, CREB1 / RFU, DNAJC13 / Fold change vs veh, DNAJC13 / RFU, GNAQ / Fold change vs veh, GNAQ / RFU, CDK5R1 / Fold change vs veh, CDK5R1 / RFU, ZRANB3 / Fold change vs veh, ZRANB3 / RFU, CUL4A / Fold change vs veh, CUL4A / RFU, CCNY / Fold change vs veh, CCNY / RFU, UFL1 / Fold change vs veh, UFL1 / RFU, COG3 / Fold change vs veh, COG3 / RFU, DIAPH2 / Fold change vs veh, DIAPH2 / RFU, SKA2 / Fold change vs veh, SKA2 / RFU, AFF3 / Fold change vs veh, AFF3 / RFU, LMF1 / Fold change vs veh, LMF1 / RFU, IPO11 / Fold change vs veh, IPO11 / RFU, DFFB / Fold change vs veh, DFFB / RFU, FOXP1 / Fold change vs veh, FOXP1 / RFU, CARD8 / Fold change vs veh, CARD8 / RFU, STRN3 / Fold change vs veh, STRN3 / RFU, ADK / Fold change vs veh, ADK / RFU, RASSF2 / Fold change vs veh, RASSF2 / RFU, WIPF1 / Fold change vs veh, WIPF1 / RFU, LARP1B / Fold change vs veh, LARP1B / RFU, RASA1 / Fold change vs veh, RASA1 / RFU, RB1 / Fold change vs veh, RB1 / RFU, PPFIA1 / Fold change vs veh, PPFIA1 / RFU, MAT2A / Fold change vs veh, MAT2A / RFU, CCT5 / Fold change vs veh, CCT5 / RFU, WDR92 / Fold change vs veh, WDR92 / RFU, CUX1 / Fold change vs veh, CUX1 / RFU, TTC7A / Fold change vs veh, TTC7A / RFU, TMEM135 / Fold change vs veh, TMEM135 / RFU, DEPTOR / Fold change vs veh, DEPTOR / RFU, CPM / Fold change vs veh, CPM / RFU, DNAJB6 / Fold change vs veh, DNAJB6 / RFU, CACNA2D3 / Fold change vs veh, CACNA2D3 / RFU, DTX4 / Fold change vs veh, DTX4 / RFU, TFCP2 / Fold change vs veh, TFCP2 / RFU, GMCL1 /// GMCL1P1 / Fold change vs veh, GMCL1 /// GMCL1P1 / RFU, AEBP2 / Fold change vs veh, AEBP2 / RFU, SNHG1 /// SNORD22 /// SNORD25 /// SNORD26 /// SNORD27 /// SNORD28 /// SNORD29 /// SNORD31 / Fold change vs veh, SNHG1 /// SNORD22 /// SNORD25 /// SNORD26 /// SNORD27 /// SNORD28 /// SNORD29 /// SNORD31 / Fold change (Aza/veh), C12orf56 (ProbeSet 11735607_a_at) / Fold change (ACY-1035/veh), C12orf56 (ProbeSet 11735607_a_at) / Fold change (Aza/veh), FGFR1OP (ProbeSet 11751329_s_at) / Fold change (ACY-1035/veh), FGFR1OP (ProbeSet 11751329_s_at) / Fold change (Aza/veh), VPS36 (ProbeSet 11739960_a_at) / Fold change (ACY-1035/veh), VPS36 (ProbeSet 11739960_a_at) / RFU SYPL1 (11715823_x_at) / Fold change /veh SYPL1 (11715823_x_at) / RFU IGFBP7 (11715501_s_at) / Fold change /veh IGFBP7 (11715501_s_at) / RFU REEP3 (11722064_at) / Fold change /veh REEP3 (11722064_at) / RFU IGLL1 (11728026_x_at) / Fold change /veh IGLL1 (11728026_x_at): dose or concentration left out as unconfirmed
# Settings: MV-4-11 cells, 48 hours
structure (smiles),measurement,value
Nc1ncn([C@@H]2O[C@H](CO)[C@@H](O)[C@H]2O)c(=O)n1 [azacitidine],Fold change /veh HLA-DPB1 (11760878_x_at),0.86
